Reference: US20100152434A1, “Protein Kinase-binding Nucleosides and Associated Methods” (priority 2007, published 2010)

Assays:
[1] = biological target: BTK (Homo sapiens, UniProt Q06187); assay: SignalChem radioisotope protein kinase assay; format: biochemical; set-up: host or cells: T7 phage in an E. coli BL21-derived host; details: 5 μl of 100 μM stock solution in 25 μl
Description: The various protein kinase targets to be employed in the kinase profiling assay were cloned, expressed and purified in-house at SignalChem (Richmond, BC, Canada) using proprietary methods. Quality control testing is routinely performed on each of the SignalChem targets to ensure compliance to acceptable standards. Protein substrates employed in the target profiling process were synthesized internally. ^33P-ATP was purchased from PerkinElmer. All other materials were of standard grade. Compound 10 (FIG. 4) was supplied to SignalChem in a powder form. It was reconstituted in DMSO to form a stock solution which was then diluted with 10% DMSO to form a working stock solution (100 μM) that was then profiled against the various protein kinase targets. The assay conditions for the various protein kinase targets were optimized to yield acceptable enzymatic activity. In addition, the assays were optimized to give high signal-to-noise ratio. […]
The assay was initiated by the addition of ^33P-ATP and the reaction mixture incubated at ambient temperature for 20-40 minutes, depending on the protein kinase target. […] The radioactivity on the P81 plate was counted in the presence of scintillation fluid in a Trilux scintillation counter. […] The corrected activity for each protein kinase target was determined by removing the blank control value.

[2] = biological target: CD2 L2 (Homo sapiens, UniProt Q9UQ88); assay: Ambit kinase phage display ATP-binding-site ligand binding assay; details: read-out: percent inhibition of binding
Description: (§4) In this assay, protein kinases are cloned into T7 bacteriophage which express the kinase fusion proteins on the phage capsid. T7 kinase-tagged phage are then screened for binding to ATP-binding-site ligands that have been immobilized on a solid support. Phage are screened for binding to the anchored ligands both in the presence of test compound and in its absence (control). Elution of the bound phage by free ligand (ATP-binding site ligand that is not immobilized on a solid support) followed by determination of the phage titre provides a reliable measure of the ability of test compounds to block binding of target kinases to resin-bound ATP-binding-site ligands.
(§5) T7 kinase-tagged phage strains were grown in parallel in microtiter plates in a proprietary bacterial host derived from E. Coli strain BL21. E. Coli were grown to a log phase, infected with T7 kinase-tagged phage, and incubated while shaking at 32° C. until bacterial lysis (approx. 90 min). Lysates were centrifuged (6,000 g) and filtered (0.2 μm). Small molecule ATP-binding-site-specific ligands were anchored to solid supports via a two step process beginning with biotin conjugation followed by treatment of the biotin/small molecule conjugate with streptavidin-coated magnetic beads. […] The phage titre of the eluates was measured by quantitative PCR or by plaque assays. […]

[3] = biological target: MLK1 (Homo sapiens, UniProt P80192); assay: as above; details: read-out: percent inhibition of binding
Description: as §4, §5

[4] = biological target: PAK3 (Homo sapiens, UniProt O75914); assay: as above; details: read-out: % Inhibition of binding to ATP-binding-site ligand
Description: (§6) This assay is based on ligand-affinity/protein kinase phage display and was employed essentially as described by Fabian et. al [Nature Biotech. […] In this assay, protein kinases are cloned into T7 bacteriophage which express the kinase fusion proteins on the phage capsid. T7 kinase-tagged phage are then screened for binding to ATP-binding-site ligands that have been immobilized on a solid support. Phage are screened for binding to the anchored ligands both in the presence of test compound and in its absence (control). Elution of the bound phage by free ligand (ATP-binding site ligand that is not immobilized on a solid support) followed by determination of the phage titre provides a reliable measure of the ability of test compounds to block binding of target kinases to resin-bound ATP-binding-site ligands.
(§7) T7 kinase-tagged phage strains were grown in parallel in microtiter plates in a proprietary bacterial host derived from E. Coli strain BL21. E. Coli were grown to a log phase, infected with T7 kinase-tagged phage, and incubated while shaking at 32° C. until bacterial lysis (approx. 90 min). Lysates were centrifuged (6,000 g) and filtered (0.2 μm). […] The phage titre of the eluates was measured by quantitative PCR or by plaque assays. […]

[5] = biological target: PIM2 (Homo sapiens, UniProt Q9P1W9); assay: SignalChem radioisotope protein kinase assay; format: biochemical; details: 5 μl of 100 μM stock solution in 25 μl
Description: (§1) The various protein kinase targets to be employed in the kinase profiling assay were cloned, expressed and purified in-house at SignalChem (Richmond, BC, Canada) using proprietary methods. Quality control testing is routinely performed on each of the SignalChem targets to ensure compliance to acceptable standards. Protein substrates employed in the target profiling process were synthesized internally. ^33P-ATP was purchased from PerkinElmer. All other materials were of standard grade. Compound 10 (FIG. 4) was supplied to SignalChem in a powder form. It was reconstituted in DMSO to form a stock solution which was then diluted with 10% DMSO to form a working stock solution (100 μM) that was then profiled against the various protein kinase targets. The assay conditions for the various protein kinase targets were optimized to yield acceptable enzymatic activity. In addition, the assays were optimized to give high signal-to-noise ratio.
(§2) SignalChem uses a radioisotope assay format for profiling evaluation of protein kinase targets. Protein kinase assays were performed in triplicate at ambient temperature for 20-40 min (depending on the target) in a final volume of 25 μl according to the following assay reaction recipe: • Component 1: 5 μl of diluted active protein kinase target (˜10-40 nM final protein concentration in the assay) • Component 2: 5 μl of stock solution of substrate (1-5 μg of peptide or protein substrate) • Component 3: 5 μl of kinase assay buffer or protein kinase activator in kinase assay buffer • Component 4: 5 μl of Compound 10 (100 μM stock solution) or 10% DMSO • Component 5: 5 μl of 33P-ATP (25 μM stock solution, 0.8 μCi)
(§3) The assay was initiated by the addition of ^33P-ATP and the reaction mixture incubated at ambient temperature for 20-40 minutes, depending on the protein kinase target. After the incubation period, the assay was terminated by spotting 10 μl of the reaction mixture onto a Millipore Multiscreen plate. The Millipore Multiscreen plate was washed 3 times for approximately 15 minutes each in a 1% phosphoric acid solution. The radioactivity on the P81 plate was counted in the presence of scintillation fluid in a Trilux scintillation counter. Blank control, which included all the assay components except the addition of the appropriate substrate (replaced with equal volume of assay dilution buffer), was set up for each protein kinase target. The corrected activity for each protein kinase target was determined by removing the blank control value.

[6] = biological target: AURORA B (Homo sapiens, UniProt Q96GD4); assay: SignalChem radioisotope protein kinase assay; format: biochemical; details: 5 μl of 100 μM stock solution in 25 μl
Description: as §1, §2, §3

[7] = biological target: PAK7 (Homo sapiens, UniProt Q9P286); assay: SignalChem radioisotope protein kinase assay; format: biochemical; details: 5 μl of 100 μM stock solution in 25 μl
Description: as §1, §2, §3

[8] = biological target: MEK1 (Homo sapiens, UniProt Q02750); assay: SignalChem radioisotope protein kinase assay; format: biochemical; details: 5 μl of 100 μM stock solution in 25 μl
Description: as §1, §2, §3

[9] = biological target: FGR (Homo sapiens, UniProt P09769); assay: SignalChem radioisotope protein kinase assay; format: biochemical; details: 5 μl of 100 μM stock solution in 25 μl
Description: as §1, §2, §3

[10] = biological target: NEK6 (Homo sapiens, UniProt Q9HC98); assay: SignalChem radioisotope protein kinase assay; format: biochemical; details: 5 μl of 100 μM stock solution in 25 μl
Description: as §1, §2, §3

[11] = biological target: PDGFRβ (Homo sapiens, UniProt P09619); assay: SignalChem radioisotope protein kinase assay; format: biochemical; details: 5 μl of 100 μM stock solution in 25 μl
Description: as §1, §2, §3

[12] = biological target: PAK2 (Homo sapiens, UniProt Q13177); assay: SignalChem radioisotope protein kinase assay; format: biochemical; details: 5 μl of 100 μM stock solution in 25 μl
Description: as §1, §2, §3

[13] = biological target: c-KIT (Homo sapiens, UniProt P10721); assay: SignalChem radioisotope protein kinase assay; format: biochemical; details: 5 μl of 100 μM stock solution in 25 μl
Description: as §1, §2, §3

[14] = biological target: p38α (Homo sapiens, UniProt Q16539); assay: SignalChem radioisotope protein kinase assay; format: biochemical; details: 5 μl of 100 μM stock solution in 25 μl
Description: as §1, §2, §3

[15] = biological target: KDR (Homo sapiens, UniProt P35968); assay: SignalChem radioisotope protein kinase assay; format: biochemical; details: 5 μl of 100 μM stock solution in 25 μl
Description: as §1, §2, §3

[16] = biological target: FAK (Homo sapiens, UniProt Q05397); assay: SignalChem radioisotope protein kinase assay; format: biochemical; details: 5 μl of 100 μM stock solution in 25 μl
Description: as §1, §2, §3

[17] = biological target: MARK3 (Homo sapiens, UniProt P27448); assay: SignalChem radioisotope protein kinase assay; format: biochemical; details: 5 μl of 100 μM stock solution in 25 μl
Description: as §1, §2, §3

[18] = biological target: FMS (Homo sapiens, UniProt P07333); assay: SignalChem radioisotope protein kinase assay; format: biochemical; details: 5 μl of 100 μM stock solution in 25 μl
Description: as §1, §2, §3

[19] = biological target: p38β (Homo sapiens, UniProt Q15759); assay: SignalChem radioisotope protein kinase assay; format: biochemical; details: 5 μl of 100 μM stock solution in 25 μl
Description: as §1, §2, §3

[20] = biological target: P38γ (Homo sapiens, UniProt P53778); assay: SignalChem radioisotope protein kinase assay; format: biochemical; details: 5 μl of 100 μM stock solution in 25 μl
Description: as §1, §2, §3

[21] = biological target: ALK4 (Homo sapiens, UniProt P36896); assay: SignalChem radioisotope protein kinase assay; format: biochemical; details: 5 μl of 100 μM stock solution in 25 μl
Description: as §1, §2, §3

[22] = biological target: EGFR (Homo sapiens, UniProt P00533); assay: Ambit kinase phage display ATP-binding-site ligand binding assay; details: read-out: % Inhibition of binding to ATP-binding-site ligand
Description: as §6, §7

[23] = biological target: AURKB (Homo sapiens, UniProt Q96GD4); assay: as above; details: read-out: percent inhibition of binding
Description: as §4, §5

[24] = biological target: p38-beta (Homo sapiens, UniProt Q15759); assay: as above; details: read-out: percent inhibition of binding
Description: as §4, §5

[25] = biological target: IKK-α (Homo sapiens, UniProt O15111); assay: as above; details: read-out: % Inhibition of binding to ATP-binding-site ligand
Description: as §4, §5

[26] = biological target: BMPR2 (Homo sapiens, UniProt Q13873); assay: as above; details: read-out: percent inhibition of binding
Chain of BMPR2 (Q13873 27-1038): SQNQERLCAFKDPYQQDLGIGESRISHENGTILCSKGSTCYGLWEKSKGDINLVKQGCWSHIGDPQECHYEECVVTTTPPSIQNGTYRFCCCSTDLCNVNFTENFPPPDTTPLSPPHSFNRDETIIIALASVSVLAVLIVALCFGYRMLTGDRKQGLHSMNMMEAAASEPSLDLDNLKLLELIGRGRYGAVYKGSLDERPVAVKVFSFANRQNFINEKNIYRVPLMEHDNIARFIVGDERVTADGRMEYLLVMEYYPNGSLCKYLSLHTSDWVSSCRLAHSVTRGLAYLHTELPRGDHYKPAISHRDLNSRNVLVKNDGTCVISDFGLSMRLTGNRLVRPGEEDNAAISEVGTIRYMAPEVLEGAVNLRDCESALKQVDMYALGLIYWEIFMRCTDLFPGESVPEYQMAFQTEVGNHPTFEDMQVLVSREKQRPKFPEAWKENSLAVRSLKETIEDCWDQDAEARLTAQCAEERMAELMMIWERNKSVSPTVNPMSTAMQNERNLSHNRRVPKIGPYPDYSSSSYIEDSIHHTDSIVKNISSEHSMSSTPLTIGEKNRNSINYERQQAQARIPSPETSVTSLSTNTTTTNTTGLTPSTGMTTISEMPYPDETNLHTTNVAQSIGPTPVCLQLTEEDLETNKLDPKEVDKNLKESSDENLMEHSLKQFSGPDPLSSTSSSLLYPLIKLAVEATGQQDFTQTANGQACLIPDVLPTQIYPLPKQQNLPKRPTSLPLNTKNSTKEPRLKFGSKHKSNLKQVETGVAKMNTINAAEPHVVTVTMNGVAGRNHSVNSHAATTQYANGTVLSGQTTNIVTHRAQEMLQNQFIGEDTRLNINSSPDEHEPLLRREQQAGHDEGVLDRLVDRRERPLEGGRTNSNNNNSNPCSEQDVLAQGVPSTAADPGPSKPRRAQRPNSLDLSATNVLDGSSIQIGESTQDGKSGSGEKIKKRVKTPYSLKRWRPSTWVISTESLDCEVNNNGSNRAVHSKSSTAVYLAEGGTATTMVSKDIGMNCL
Description: as §6, §7

Chain of PAK3 (O75914 whole entry, species assumed): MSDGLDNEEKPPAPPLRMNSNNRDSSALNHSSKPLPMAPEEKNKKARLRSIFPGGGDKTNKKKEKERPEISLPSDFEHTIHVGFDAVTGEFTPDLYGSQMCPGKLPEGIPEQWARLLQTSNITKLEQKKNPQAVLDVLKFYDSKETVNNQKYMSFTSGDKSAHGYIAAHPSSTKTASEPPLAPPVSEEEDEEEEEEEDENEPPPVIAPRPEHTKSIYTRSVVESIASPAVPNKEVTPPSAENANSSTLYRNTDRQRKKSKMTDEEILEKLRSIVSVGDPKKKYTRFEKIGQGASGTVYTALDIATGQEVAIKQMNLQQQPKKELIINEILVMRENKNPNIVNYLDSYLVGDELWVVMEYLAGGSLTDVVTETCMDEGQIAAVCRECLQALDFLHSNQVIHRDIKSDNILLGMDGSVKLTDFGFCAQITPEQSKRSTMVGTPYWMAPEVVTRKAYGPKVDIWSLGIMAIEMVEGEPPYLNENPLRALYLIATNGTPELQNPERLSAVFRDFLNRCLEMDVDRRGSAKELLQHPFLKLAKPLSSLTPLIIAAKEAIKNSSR
Chain of CD2 L2 (Q9UQ88 whole entry): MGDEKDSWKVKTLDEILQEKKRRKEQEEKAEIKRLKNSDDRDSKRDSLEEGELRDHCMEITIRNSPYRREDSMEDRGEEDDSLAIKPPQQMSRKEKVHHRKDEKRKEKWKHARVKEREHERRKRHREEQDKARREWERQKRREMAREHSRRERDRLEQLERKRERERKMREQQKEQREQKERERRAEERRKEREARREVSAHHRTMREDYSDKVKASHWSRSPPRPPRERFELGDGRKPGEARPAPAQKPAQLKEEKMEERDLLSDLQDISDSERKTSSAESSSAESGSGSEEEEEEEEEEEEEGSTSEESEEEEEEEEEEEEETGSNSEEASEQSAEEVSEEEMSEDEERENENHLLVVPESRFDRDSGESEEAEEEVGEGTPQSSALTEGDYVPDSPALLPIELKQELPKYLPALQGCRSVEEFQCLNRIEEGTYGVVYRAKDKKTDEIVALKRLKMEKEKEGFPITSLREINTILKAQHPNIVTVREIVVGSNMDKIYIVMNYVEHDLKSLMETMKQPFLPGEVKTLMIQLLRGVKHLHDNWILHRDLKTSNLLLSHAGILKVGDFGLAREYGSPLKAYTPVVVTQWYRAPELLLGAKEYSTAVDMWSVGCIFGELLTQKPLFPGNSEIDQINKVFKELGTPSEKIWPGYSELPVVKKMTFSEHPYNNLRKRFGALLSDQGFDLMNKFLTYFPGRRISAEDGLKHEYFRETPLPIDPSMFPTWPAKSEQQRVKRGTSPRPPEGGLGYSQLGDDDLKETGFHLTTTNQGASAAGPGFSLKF
Chain of IKK-α (O15111 whole entry): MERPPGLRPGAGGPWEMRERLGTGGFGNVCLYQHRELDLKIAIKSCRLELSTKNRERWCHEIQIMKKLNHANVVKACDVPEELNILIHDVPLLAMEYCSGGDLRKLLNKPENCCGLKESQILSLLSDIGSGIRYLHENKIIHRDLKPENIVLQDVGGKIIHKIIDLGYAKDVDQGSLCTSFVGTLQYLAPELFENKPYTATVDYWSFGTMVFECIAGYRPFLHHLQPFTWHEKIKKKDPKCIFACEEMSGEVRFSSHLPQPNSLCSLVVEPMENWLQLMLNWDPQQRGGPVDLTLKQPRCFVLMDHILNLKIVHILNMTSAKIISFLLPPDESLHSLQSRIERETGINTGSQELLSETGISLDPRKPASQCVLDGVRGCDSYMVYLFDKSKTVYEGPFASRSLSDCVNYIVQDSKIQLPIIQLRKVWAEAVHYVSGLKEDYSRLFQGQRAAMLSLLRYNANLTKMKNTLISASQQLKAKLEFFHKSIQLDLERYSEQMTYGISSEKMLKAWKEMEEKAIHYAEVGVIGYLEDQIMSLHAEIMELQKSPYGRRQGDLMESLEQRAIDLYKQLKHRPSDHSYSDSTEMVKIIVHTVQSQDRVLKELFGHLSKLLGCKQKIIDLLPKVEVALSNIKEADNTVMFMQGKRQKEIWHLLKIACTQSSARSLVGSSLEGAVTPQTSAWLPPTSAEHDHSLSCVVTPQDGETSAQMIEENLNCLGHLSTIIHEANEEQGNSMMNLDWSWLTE
Chain of PAK7 (Q9P286 whole entry, species assumed): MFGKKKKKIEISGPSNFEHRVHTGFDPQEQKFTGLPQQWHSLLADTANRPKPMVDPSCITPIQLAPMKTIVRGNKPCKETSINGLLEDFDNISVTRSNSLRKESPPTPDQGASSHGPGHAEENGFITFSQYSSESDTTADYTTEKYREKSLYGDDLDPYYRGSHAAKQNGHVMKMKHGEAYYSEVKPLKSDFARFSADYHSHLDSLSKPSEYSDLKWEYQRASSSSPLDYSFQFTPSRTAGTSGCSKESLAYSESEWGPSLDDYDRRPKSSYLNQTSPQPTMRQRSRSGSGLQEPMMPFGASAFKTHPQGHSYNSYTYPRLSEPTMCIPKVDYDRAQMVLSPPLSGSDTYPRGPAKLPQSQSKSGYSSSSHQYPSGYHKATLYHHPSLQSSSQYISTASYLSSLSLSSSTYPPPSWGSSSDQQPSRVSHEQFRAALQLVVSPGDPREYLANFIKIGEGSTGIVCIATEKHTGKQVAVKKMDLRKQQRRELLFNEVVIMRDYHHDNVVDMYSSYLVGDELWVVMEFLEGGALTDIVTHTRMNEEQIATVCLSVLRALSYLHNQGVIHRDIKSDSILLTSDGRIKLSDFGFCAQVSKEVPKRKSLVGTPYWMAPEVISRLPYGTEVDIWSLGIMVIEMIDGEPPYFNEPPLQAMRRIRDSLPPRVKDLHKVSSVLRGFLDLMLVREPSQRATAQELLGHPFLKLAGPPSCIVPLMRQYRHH
Chain of MEK1 (Q02750 whole entry, species assumed): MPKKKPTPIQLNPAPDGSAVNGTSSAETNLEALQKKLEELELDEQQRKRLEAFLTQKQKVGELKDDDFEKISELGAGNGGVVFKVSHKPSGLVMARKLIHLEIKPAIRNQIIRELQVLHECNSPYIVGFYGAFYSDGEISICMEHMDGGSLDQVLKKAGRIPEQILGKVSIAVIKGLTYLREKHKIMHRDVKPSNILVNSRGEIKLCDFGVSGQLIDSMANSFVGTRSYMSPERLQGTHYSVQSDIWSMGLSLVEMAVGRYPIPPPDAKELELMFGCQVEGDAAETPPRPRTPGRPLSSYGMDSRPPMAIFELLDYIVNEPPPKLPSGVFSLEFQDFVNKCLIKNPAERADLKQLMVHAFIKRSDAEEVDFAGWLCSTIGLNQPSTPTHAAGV
Chain of ALK4 (P36896 24-505, species assumed): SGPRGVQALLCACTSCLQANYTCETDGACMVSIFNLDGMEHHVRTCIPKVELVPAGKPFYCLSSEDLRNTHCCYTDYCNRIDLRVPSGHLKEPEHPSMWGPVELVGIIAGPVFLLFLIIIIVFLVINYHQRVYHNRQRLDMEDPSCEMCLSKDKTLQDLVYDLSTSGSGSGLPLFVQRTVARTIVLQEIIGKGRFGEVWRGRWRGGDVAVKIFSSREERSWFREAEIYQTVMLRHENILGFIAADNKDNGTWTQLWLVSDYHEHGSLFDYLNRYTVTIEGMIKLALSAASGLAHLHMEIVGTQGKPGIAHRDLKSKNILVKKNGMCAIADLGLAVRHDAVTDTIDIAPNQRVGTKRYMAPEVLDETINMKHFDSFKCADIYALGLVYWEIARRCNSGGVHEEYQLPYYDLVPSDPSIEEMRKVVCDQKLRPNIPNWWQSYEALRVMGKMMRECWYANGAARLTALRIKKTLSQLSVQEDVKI
Chain of NEK6 (Q9HC98 whole entry, species assumed): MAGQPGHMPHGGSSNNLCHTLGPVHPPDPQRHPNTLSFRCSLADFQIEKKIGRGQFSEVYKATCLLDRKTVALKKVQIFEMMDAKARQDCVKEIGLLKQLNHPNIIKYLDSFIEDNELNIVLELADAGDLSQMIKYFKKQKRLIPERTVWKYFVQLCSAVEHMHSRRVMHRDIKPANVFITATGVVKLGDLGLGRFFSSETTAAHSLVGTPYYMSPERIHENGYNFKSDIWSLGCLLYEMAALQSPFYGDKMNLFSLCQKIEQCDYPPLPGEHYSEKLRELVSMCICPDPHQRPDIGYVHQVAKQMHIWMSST

## CCOC(=O)C[C@@H]1C(O[Si](C)(C)C(C)(C)C)[C@H](n2cnc3c(NC(=O)Nc4ccccc4)ncnc32)O[C@@H]1CNC(=O)NC (some centres unmarked) [Compound 10]
[1]
  % Activity Change: 10%
[2]
  inhibition at 10 µM: 20 to 29%
[3]
  inhibition at 10 µM: 20 to 29%
[4]
  inhibition at 10 µM: 33%
[5]
  % Activity Change: 18%
[6]
  % Activity Change: 4%
[7]
  % Activity Change: 21%
[8]
  % Activity Change: 8%
[9]
  % Activity Change: 3%
[10]
  % Activity Change: 28%
[11]
  % Activity Change: −7%
[12]
  % Activity Change: 16%
[13]
  % Activity Change: −6%
[14]
  % Activity Change: 9%
[15]
  % Activity Change: 2%
[16]
  % Activity Change: −3%
[17]
  % Activity Change: −1%
[18]
  % Activity Change: −17%
[19]
  % Activity Change: 15%
[20]
  % Activity Change: 14%
[21]
  % Activity Change: 2%
[22]
  inhibition at 10 µM: 30%
[23]
  inhibition at 10 µM: 20 to 29%
[24]
  inhibition at 10 µM: 20 to 29%
[25]
  inhibition at 10 µM: 37%
[26]
  inhibition at 10 µM: 20 to 29%
